Measured values taken from the NIST ThermoML archive (doi:10.1016/j.jct.2014.08.005).

Assays:
[1] = Liquid, Vibrating tube method
[2] = wn = mass fraction of the nth substance listed; details: 101 kPa, Liquid, Vibrating tube method

CC(O)COC(C)COC(C)CO (configuration not stated) [2-[2-(2-hydroxypropoxy)propoxy]-1-propanol]
[1], 101 kPa
Details | mass density [kg/m3]
293.15 K | 1017.5
303.15 K | 1009.5
313.15 K | 1001.5
323.15 K | 993.4
333.15 K | 985.2
343.15 K | 976.9

OCCOCCOCCO [triethylene glycol]
[1], 101.33 kPa
Details | mass density [kg/m3]
293.15 K | 1124.7
303.15 K | 1117
313.15 K | 1109.2
323.15 K | 1101.5
333.15 K | 1093.7
343.15 K | 1085.9

CC(O)COC(C)COC(C)CO (configuration not stated) [2-[2-(2-hydroxypropoxy)propoxy]-1-propanol] + O
mass density [kg/m3], [2]
Details | 293.15 K | 303.15 K | 313.15 K | 323.15 K | 333.15 K | 343.15 K
w1 = 0.2 | 1019.4 | 1015.2 | 1010.2 | 1004.5 | 998.4 | 991.6
w1 = 0.4 | 1037.1 | 1030.1 | 1022.9 | 1015.5 | 1007.7 | 999.6
w1 = 0.6 | 1041.1 | 1033.2 | 1025.2 | 1017.2 | 1008.7 | 1000.2
w1 = 0.8 | 1030.7 | 1023.1 | 1015.4 | 1007.6 | 999.5 | 990.9
w1 = 1 | 1017.5 | 1009.5 | 1001.5 | 993.4 | 985.2 | 976.9
